Measurements as given in ChEMBL document CHEMBL4033635, “Structure, synthesis and biological properties of the pentacyclic guanidinium alkaloids” (Bioorg Med Chem, 2017).
pEC50, pIC50, pKi: −log10 of the molar value. ≈ marks a conversion by molar mass, not a printed value.

Key:
Staphylococcus aureus [1] = assay: Antibacterial activity against Staphylococcus aureus; format: functional
[2] = system: Human immunodeficiency virus 1; assay: Inhibition of HIV-1 reverse transcriptase at 10 uM
Staphylococcus aureus [3] = assay: Antibacterial activity against methicilin-resistant Staphylococcus aureus; format: functional
Plasmodium falciparum [4] = assay: Antiprotozoal activity against chloroquine-resistant Plasmodium falciparum W2 after 48 hrs by lactate dehydrogenase assay; format: functional; details: W2, 48 h
[5] = system: Human immunodeficiency virus 1; assay: Antiviral activity against HIV1 LAV in human PBM cells; format: functional, cell-based; details: Human immunodeficiency virus 1, LAV
[6] = Inhibition of rabbit sercoplasmic reticulum Ca+-ATPase; parameters: species or system Oryctolagus cuniculus
[7] = Inhibition of pig cerebral cortex Na+/K+-ATPase; parameters: species or system Sus scrofa
Plasmodium falciparum [8] = assay: Antiprotozoal activity against chloroquine-sensitive Plasmodium falciparum D6 after 48 hrs by lactate dehydrogenase assay; format: functional; details: D6, 48 h
[9] = biological target: Eukaryotic translation initiation factor 5A-1 (Homo sapiens) (UniProt P63241); assay: Inhibition of eIF5A-1 (unknown origin) at 1 uM
Chain of Eukaryotic translation initiation factor 5A-1 (Homo sapiens) (P63241 whole entry): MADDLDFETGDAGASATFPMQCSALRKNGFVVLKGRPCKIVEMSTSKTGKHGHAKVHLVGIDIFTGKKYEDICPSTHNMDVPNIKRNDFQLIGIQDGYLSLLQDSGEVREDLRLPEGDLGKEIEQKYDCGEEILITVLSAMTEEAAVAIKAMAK

K562 [10] = assay: Growth inhibition of human K562 cells; format: functional
[11] = biological target: Neuronal acetylcholine receptor subunit alpha-7 (Homo sapiens, UniProt P36544); assay: Displacemet of [125I]-alphaBgt from human alpha7 nAChR expressed in rat GH4C1 cells preincubated for 2 to 3 hrs followed by [125I]-alphaBgt addition measured after 5 mins; format: cell-based
Chain of Neuronal acetylcholine receptor subunit alpha-7 (P36544 whole entry): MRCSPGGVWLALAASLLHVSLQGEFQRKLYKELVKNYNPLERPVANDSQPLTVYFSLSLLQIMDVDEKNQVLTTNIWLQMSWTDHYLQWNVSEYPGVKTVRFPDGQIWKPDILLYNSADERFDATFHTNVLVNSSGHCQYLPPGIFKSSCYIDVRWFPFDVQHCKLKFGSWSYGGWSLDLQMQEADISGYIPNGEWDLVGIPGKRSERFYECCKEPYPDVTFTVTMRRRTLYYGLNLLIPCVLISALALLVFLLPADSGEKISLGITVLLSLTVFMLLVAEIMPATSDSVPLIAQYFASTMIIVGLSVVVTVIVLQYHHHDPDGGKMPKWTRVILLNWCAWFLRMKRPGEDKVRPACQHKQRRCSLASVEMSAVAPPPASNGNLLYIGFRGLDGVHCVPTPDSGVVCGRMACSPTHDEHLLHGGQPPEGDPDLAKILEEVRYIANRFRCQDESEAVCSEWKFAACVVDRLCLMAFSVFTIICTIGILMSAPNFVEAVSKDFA

HeLa = assay: Antiproliferative activity against human HeLa cells; format: functional, cell-based
[12] = Displacement of [125I]-alphaBgt from Torpedo californica muscle-type nAChR preincubated for 2 to 3 hrs followed by [125I]-alphaBgt addition addition measured after 5 mins; parameters: species or system Tetronarce californica
K562 [13] = assay: Cytotoxicity against human K562 cells; format: functional, cell-based
[14] = Inhibition of Ca2+-ATPase (unknown origin); parameters: species or system Homo sapiens

CC[C@H]1C=CCC[C@@]2(C[C@@H]3CC[C@@H]4[C@H](C(=O)OCCCCCCCCCCCCCCCC(=O)N(CCCN)CCCN)[C@]5(CCC[C@@H](C)O5)NC(=N2)N34)O1
MIC (Staphylococcus aureus [1]): 0.63 mg/L (≈ 0.817 µM)
inhibition [2]: 55 to 64%
MIC (Staphylococcus aureus [3]): 0.63 mg/L (≈ 0.817 µM)
IC50 (Plasmodium falciparum [4]): 0.11 to 0.12 mg/L (≈ 0.143 to 0.156 µM)
pEC50 [5]: 7.96
EC90 [5]: 0.046 µM
pIC50 [6]: 5.00
pIC50 [7]: 5.70
IC50 (Plasmodium falciparum [8]): 0.11 to 0.12 mg/L (≈ 0.143 to 0.156 µM)

CC/C=C/[C@@H]1CC[C@]2(C[C@H]3CC[C@H]4[C@@H](C(=O)OC(CC)CCCCCCCCCCCCC[C@@H]5O[C@](O)(CCN)[C@H](O)N(CCCN)C5=O)[C@@]5(CCC[C@H](C)O5)NC(=[N+]34)N2)O1 (stereo partly drawn)
inhibition [9]: 50%

CC[C@H]1C=CCC[C@@]2(C[C@@H]3CC[C@@H]4C(C(=O)OC/C=C/c5ccccc5)[C@]5(CCC[C@@H](C)O5)NC(=[N+]34)N2)O1 (stereo partly drawn)
GI50 (K562 [10]): < 1 µM

CC/C=C/[C@H]1CC[C@@]2(C[C@@H]3CC[C@@H]4[C@H](C(=O)OCCCCCCCCCCCCCCC(O)C(=O)NCCCN)[C@]5(CCC[C@@H](C)O5)N=C(N2)N34)O1 (stereo partly drawn)
pKi [11]: 3.51 to 5.10
pIC50 (HeLa): 5.68 to 6.24
pKi [12]: 3.51 to 5.10

NCCCCN(CCCN)C(=O)CCCCCCCCCCCCCCCc1ccc2c(c1)[C@@H]1C[C@]3(CCCCO3)NC3=[N+]1[C@@H]2C[C@@]1(CCCCO1)N3.[Cl-]
inhibition [2]: 64%
IC50 (K562 [13]): 0.52 mg/L

CC/C=C/[C@H]1CC[C@@]2(C[C@@H]3CC[C@@H]4[C@H](C(=O)OCCCCCCCCCCCCCCCC(=O)N(CCCN)CCCCN)[C@]5(CCC[C@@H](C)O5)N=C(N2)N34)O1
pIC50 (HeLa): 5.68 to 6.24

CC[C@H]1C=CCC[C@@]2(C[C@@H]3CC[C@@H]4[C@H](C(=O)OCCCCCCCCCCCCCCCC(=O)N(CCCN)C[C@@H](O)CCN)[C@]5(CCC[C@@H](C)O5)NC(=N2)N34)O1
pEC50 [5]: 7.40
EC90 [5]: 0.12 µM

NCCCCN(CCCN)C(=O)CCCCCCCCCCCCCCC(=O)O[C@H]1C[C@H]2C[C@@]3(CCCCCO3)NC3=[N+]2[C@H]1C[C@]1(CCCCO1)N3
pIC50 [14]: 5.52

CCC[C@@H]1CCC[C@@]2(N=C3N[C@]4(CCC=C[C@H](CC)O4)C[C@@H]4CC[C@H]([C@@H]2C(=O)OCCCCCCCCCCCCCCCC(=O)N(CCCN)CCCCN)N34)O1
pKi [11]: 3.51 to 5.10
pKi [12]: 3.51 to 5.10

NCCCCN(CCCN)C(=O)CCCCCCCCCCCCCCC(=O)O[C@H]1C[C@H]2C[C@@]3(CCCCO3)NC3=[N+]2[C@@H]1C[C@@]1(CCCCCO1)N3
pIC50 [14]: 6.00
